From EP0066373A1, “Beta-lactam derivatives, a process for their preparation and compositions containing them” (BEECHAM GROUP PLC, priority 1981, dated 1982)

Legend:
Assay type in all cases: cell-based
[1] = tested on: E. coli ESS; test: Antibacterial activity (MIC); settings: Escherichia coli, Agar
[2] = tested on: E. coli JT 4; test: Antibacterial activity (MIC); settings: Escherichia coli, JT4, Agar
[3] = tested on: E. coli JT 425; test: Antibacterial activity (MIC); settings: Escherichia coli, JT425, Agar
[4] = tested on: E. coli NCTC 10418; test: Antibacterial activity (MIC); settings: Escherichia coli
[5] = tested on: Ps. aeurginosa NCTC 10662; test: Antibacterial activity (MIC)
[6] = tested on: Ps. aeruginosa NCTC 10662 10^-2; test: Antibacterial activity (MIC), 10^-2; settings: Pseudomonas aeruginosa
[7] = tested on: Ps. aeruginosa Dalgleish 10^-2; test: Antibacterial activity (MIC), 10^-2; settings: Pseudomonas aeruginosa, Agar
[8] = tested on: S. marcescens US 32; test: Antibacterial activity (MIC); settings: Serratia marcescens, US32, Agar
[9] = tested on: K. aerogenes A; test: Antibacterial activity (MIC); settings: Klebsiella aerogenes
[10] = tested on: E. cloacae N1; test: Antibacterial activity (MIC); settings: Enterobacter cloacae, Agar
[11] = tested on: P. mirabilis C 977; test: Antibacterial activity (MIC); settings: Proteus mirabilis, C977, Agar

Row | Structure (SMILES) | MIC [1] [µg/mL] | MIC [2] [µg/mL] | MIC [3] [µg/mL] | MIC ([4]; NCTC10418, Agar) [µg/mL] | MIC ([5]; Agar) [µg/mL] | MIC ([6]; NCTC10662, Agar) [µg/mL] | MIC [7] [µg/mL] | MIC [8] [µg/mL] | MIC ([9]; Agar) [µg/mL] | MIC [10] [µg/mL] | MIC [11] [µg/mL] | MIC ([4]; NCTC10418, Broth) [µg/mL] | MIC ([5]; Broth) [µg/mL] | MIC ([6]; NCTC10662, Broth) [µg/mL] | MIC ([9]; Broth) [µg/mL]
1 | CO[C@@]1(NC(=O)[C@@H](c2ccc(O)c(O)c2)S(=O)(=O)O)C(=O)N2[C@@H](C(=O)O)C(C)(C)S[C@@H]21 [Example 9, Disodium 6,β-[R-2-(3,4-dihydroxyphenyl)-2-sulphoacetamido] -6,a-methoxypenicillanate] | 0.1 | 2.5 | 1 | 2.5 | 2.5 | 0.5 | 0.5 | 25 | 5 | 50 | 25 | – | – | – | –
2 | CO[C@@]1(NC(=O)C(c2ccc(O)c(O)c2)S(=O)(=O)O)C(=O)N2[C@@H](C(=O)O)C(C)(C)S[C@@H]21 (stereo partly drawn) [Example 4, Disodium 6,β-[R,S-2-(3,4-dihydroxyphenyl)-2-sulphoacetamido]-6,a-methoxypenicillanate] | 0.5 | 5 | 5 | 5 | 2.5 | 5 | 2.5 | 25 | 5 | 50 | 25 | – | – | – | –
3 | CO[C@@]1(NC(=O)C(c2ccc(OC(C)=O)c(OC(C)=O)c2)S(=O)(=O)O)C(=O)N2[C@@H](C(=O)O)C(C)(C)S[C@@H]21 (stereo partly drawn) [Example 3, Disodium 6,β-[R,S-2-(3,4-diacetoxyphenyl)-2-sulphoacetamido]-6,a-methoxypenicillanate] | 0.2 | 2.5 | 2.5 | 2.5 | 2.5 | 2.5 | 2.5 | 25 | 10 | 50 | 25 | 5 | 5 | 5 | 25
4 | CO[C@@]1(NC(=O)[C@@H](c2ccc(OC(C)=O)c(OC(C)=O)c2)S(=O)(=O)O)C(=O)N2[C@@H](C(=O)O)C(C)(C)S[C@@H]21 [Example 8, Disodium 6,β-[R-2-(3,4-diacetoxyphenyl)-2-sulphoacetamido]-6,a-methoxypenicillanate] | 0.2 | 2.5 | 1 | 2.5 | 2.5 | 0.5 | 0.5 | 25 | 5 | 25 | 10 | 5 | 1 | 0.5 | 10
